Consider two compounds from patent publication US20180353445A1, “METHODS AND COMPOSITIONS RELATING TO PROTEASOME INHIBITOR RESISTANCE” (Whitehead Institute for Biomedical Research, priority 2017, published 2018).

Assay [1] deals with relapsed multiple myeloma. The assay is described as follows: Analysis of phase 2/3 bortezomib clinical trials in relapsed multiple myeloma stratified by 19S subunit expression. Type of assay: in vivo, human. How it is done: (All patients were treated with bortezomib.) (FIG. 15B) Reduced expression of 19S subunit expression is correlated with poor tumor suppression response to bortezomib in patients with relapsed myeloma enrolled in phase 2 and phase 3 clinical trials of bortezomib. Plotted is the time to relapse for patients that relapsed that were either treated with bortezomib, stratified by reduced expression of at least one subunit of the 19S proteasome complex or the dexamethasone treated group as a control.
We analyzed gene expression data from 135 patients with relapsed multiple myeloma who participated in Phase II or III trials of bortezomib (˜2007; Mulligan, G., Mitsiades, et al. (2007) Gene expression profiling and correlation with outcome in clinical trials of the proteasome inhibitor hortezomib. Blood 109, 3177-3188) and determined the sigma score for each cancer. […]
Methods details: re-treatment gene expression data from relapsed multiple myeloma patients undergoing clinical trials with bortezomib were downloaded from GSE9782 (34). […] Sigma scores were calculated from all probes. […] P-value was calculated using Wilcoxon test.

The next assay concerns T47D cells. The assay is described as follows: Competition co-culture of TurboRFP PSMD2 shRNA and GFP control shRNA T47D cells, FACS/microscopy. Conditions: 5 nM, 48 hours. It is filed as cell-based, human. On the procedure: We created two cell lines—one line that expresses red fluorescent protein (turboRFP) and the doxycycline-inducible PSMD2-targeting shRNA and another line that expresses green fluorescent protein (GFP) and a doxycycline-inducible control shRNA (FIG. 6A). First, we induced shRNA expression with doxycycline for 48 hours. After recovery, we mixed shPSMD2-RFP and shControl-GFP cells at different ratios (either 1:1, 1:2, 1:5 or 1:10), adding the cells with reduced PSMD2 as the minority subpopulation. Twenty-four hours after plating, we treated these mixed populations of cells for 48 hours with increasing concentrations of bortezomib (5, 7.5 or 10 nM). We allowed the cells to recover in the absence of bortezomib and then we quantified the red and green cells by FACS analysis (FIG. 6A) and captured representative images by fluorescence microscopy (FIG. 6B),
The experiment described in Example 10 was repeated with minor differences using a panel of different proteasome inhibitors: MLN2238, MLN9708, and oprozomib T47D cells harboring a doxycycline inducible control shRNA (GFP) or a doxycycline-inducible PSMD2 shRNA (TurboRFP) were incubated with doxycycline for 3 days. Cells were collected, counted, and plated at a 1:10 ratio of TurboRFP-expressing PSMD2 shRNA cells/GFP expression control shRNA cells in the absence of Dox. Proteasome inhibitors were added at the specified concentrations and cells were maintained in culture. Cells were allowed to recover in the absence of the proteasome inhibitor and then analyzed by FACS (FIG. 8B, top) or visualized by microscopy (FIG. 8B, bottom). In the absence of proteasome inhibitors, the initial plating ratio of these cells (1:10) was maintained over the duration of the experiment (FIG. 8B). […]
Visualization and FACS analysis of GFP/RFP levels—cells were trypsinized in 100 μL Accumax® solution and further diluted into 100 μl PBSx1. The number of cells with red or areen fluorescent proteins was measured by MACSQuant® VYB according to manufactures protocol. […]

The subject of a further assay is K562 cells. The assay is described as follows: K562 viability and cell proliferation (relative cell number count), incl. FDX1 KO cells. It is filed as cell-based, human. Particulars: FDX1-null cell line versus non-targeting control sgRNA. The text has this:
Despite its use in clinical trials on a limited number of malignancies, the elesclomol mechanism of action remains unclear. We therefore undertook a genetic approach to identify its direct target and to define cellular pathways that modulate the sensitivity of cancer cells to elesclomol-induced toxicity. […] We measured the relative abundance of each sgRNA in the compound-treated K562 cells at the beginning and end of the culture period. For each gene, we calculated its score as the mean log2 fold-change in abundance of all sgRNAs targeting the gene. […]
Viability and cell proliferation assays—Relative cell number count protocol—The viability of K562 cells was conducted by seeding cells at 250,000 cells/mL in 6-well plates of RPMI. […] Viable cell numbers were counted using countess (Invitrogen) every 2-3 days and cells were reseeded at 250,000 cells/mL in 6-well plates of RPMI to continue growth.
The viability of FDX1 KO K562 cells and AAVS1 KO and WT controls was examined by plating 100,000 cells/mL in 6-well cells in RPMI media (without glucose containing dialyzed serum) with either 10 mM glucose or 10 mM galactose. Viable cell numbers were counted every day using countess (Invitrogen).

Regarding `CC(C)C[C@H](NC(=O)[C@H](Cc1ccccc1)NC(=O)c1cnccn1)B(O)O` [bortezomib], the “time to progression of patients with reduced 19S subunit expression vs patients without” value in assay [1] (34 patients, p-value=0.0086) is recorded as “shortened time to progression”. In assay [1] (vs dexamethasone control), the “effectiveness in patients with reduced expression of 19S proteasome subunit(s)” value is given as “no significant effectiveness over the dexamethasone control”. Besides, the “shift of surviving population toward PSMD2 shRNA cells” value with T47D cells is on record as “substantially shifted the populations of surviving cells”.

For the compound `CN(NC(=O)CC(=O)NN(C)C(=S)c1ccccc1)C(=S)c1ccccc1` [elesclomol], the “effect of loss of FDX1 protein on sensitivity” value in the assay on K562 cells is on record as “confers relative resistance”.
